Data from patent US20070129403A1, “METHOD OF TREATING SCHIZOPHRENIA AND/OR GLUCOREGULATORY ABNORMALITIES” (AVENTIS PHARMACEUTICALS INC., priority 2004, published 2007).
“And” between values parts separate entries of the source, which are not always exact repeats. Equal values may be shown once.

How the values were obtained:
[1] = system: release of norepinephrine, acetylcholine and serotonin; details: dependence on added calcium; Smith et al, 1993; 1996; cited from earlier work
[2] = target: T1, voltage-gated potassium channels in hamster HIT-T15 insulinoma cells (Mesocricetus auratus, UniProt A0A3Q0CYQ2); assay: Whole-cell patch clamp, voltage-gated potassium currents in HIT-T15 insulinoma cells; assay type: cell-based, Syrian Hamster; details: for Voltage-Gated Potassium Current (% Control), Average: average of cells; for Voltage-Gated Potassium Current (% Control), single cells: individual cells #1-#5
T1 construct: endogenous in cells; host or cells: HIT-T15 (Syrian hamster insulinoma)
T1 sequence (A0A3Q0CYQ2 1-857): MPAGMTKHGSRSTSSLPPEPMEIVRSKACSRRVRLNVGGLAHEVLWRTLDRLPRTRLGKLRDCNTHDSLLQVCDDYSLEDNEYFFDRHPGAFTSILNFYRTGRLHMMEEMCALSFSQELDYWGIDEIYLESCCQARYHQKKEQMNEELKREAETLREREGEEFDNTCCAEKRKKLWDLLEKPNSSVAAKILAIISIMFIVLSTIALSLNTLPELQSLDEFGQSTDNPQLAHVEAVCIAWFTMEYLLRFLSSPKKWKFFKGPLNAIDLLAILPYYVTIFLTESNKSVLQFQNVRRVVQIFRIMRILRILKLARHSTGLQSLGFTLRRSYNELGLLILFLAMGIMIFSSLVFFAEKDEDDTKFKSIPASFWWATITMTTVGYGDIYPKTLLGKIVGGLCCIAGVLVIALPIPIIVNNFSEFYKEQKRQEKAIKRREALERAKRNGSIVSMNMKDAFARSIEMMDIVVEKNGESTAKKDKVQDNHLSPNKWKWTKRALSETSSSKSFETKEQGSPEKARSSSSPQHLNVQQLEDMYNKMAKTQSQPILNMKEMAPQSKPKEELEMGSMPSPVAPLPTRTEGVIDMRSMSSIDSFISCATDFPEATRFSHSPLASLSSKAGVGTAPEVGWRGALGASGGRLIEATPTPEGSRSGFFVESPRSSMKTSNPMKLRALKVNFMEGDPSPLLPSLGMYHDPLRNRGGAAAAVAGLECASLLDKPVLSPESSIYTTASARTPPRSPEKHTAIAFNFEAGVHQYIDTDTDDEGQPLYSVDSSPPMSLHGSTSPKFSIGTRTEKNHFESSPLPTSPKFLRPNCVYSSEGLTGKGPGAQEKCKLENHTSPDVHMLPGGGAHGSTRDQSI
Procedure: The purpose of this in vitro study was to evaluate the effects of HP184 on voltage-gated potassium channels in hamster HIT-T15 insulinoma cells using the whole-cell patch-clamping technique.
HIT-T15 cells (from Syrian Hamster pancreas) expressing voltage-gated potassium channels were grown in RPMI media supplemented with 10% fetal bovine serum and 1×penicillin/streptomycin in an atmosphere of 95% air/5% CO2. Cells used for patch-clamping were seeded on glass or plastic coverslips 12-36 hours before use. Currents were recorded at room temperature using the whole-cell configuration of the patch clamp technique with an Axopatch 200B amplifier (Axon Instruments, Foster City, Calif.). Briefly, electrodes (3-6 MΩ resistance) were fashioned from TW150F glass capillary tubes (World Precision Instruments Sarasota, Fla.) and filled with pipette solution (in mM: potassium aspartate 120; KCl 20; Na2ATP 4; HEPES 5; MgCl2 1; pH 7.2 adjusted with KOH). Currents were initiated by a 300-ms positive voltage pulse (20 mV) followed by a 50-ms negative pulse (−100 mV) and were recorded for off-line analyses. Once current from a cell perfused with control external solution (in mM: NaCl 130; KCl 5; sodium acetate 2.8; MgCl2 1; HEPES, 10; glucose 10; CaCl2 1 at pH7.4 adjusted with NaOH) was stabilized, the cell was perfused with external solution containing 1 μM HP184 (batch: R.C.4.53.3; molecular weight: 320.5; diluted from a 50 mM stock solution in DMSO prepared daily; the DMSO final concentration in all drug solutions was not more than 0.06%). Currents were continuously recorded until they reached steady-state condition. The same procedure was performed with increasing concentrations of HP184 (3, 10 and 30 μM, sequentially). For each concentration from each cell, the steady-state current at the end of the 20-mV activation pulse was measured in pico Ampere (pA).
The amplitude in pA for each concentration was compared with that for the control solution from the same cell and expressed as percent control (% control).

[3] = target: T2, cloned human Kv2.1 potassium channels (Homo sapiens, UniProt Q14721); assay: Whole-cell patch clamp, cloned human Kv2.1 channels expressed in U-373MG cells; assay type: cell-based; details: for Kv 2.1 Current (% Control), Average: average of cells; for Kv 2.1 Current (% Control), single cells: individual cells
T2 construct: expressed in transfected cells; host or cells: U-373MG (G418 selection)
T2 sequence (Q14721 1-858): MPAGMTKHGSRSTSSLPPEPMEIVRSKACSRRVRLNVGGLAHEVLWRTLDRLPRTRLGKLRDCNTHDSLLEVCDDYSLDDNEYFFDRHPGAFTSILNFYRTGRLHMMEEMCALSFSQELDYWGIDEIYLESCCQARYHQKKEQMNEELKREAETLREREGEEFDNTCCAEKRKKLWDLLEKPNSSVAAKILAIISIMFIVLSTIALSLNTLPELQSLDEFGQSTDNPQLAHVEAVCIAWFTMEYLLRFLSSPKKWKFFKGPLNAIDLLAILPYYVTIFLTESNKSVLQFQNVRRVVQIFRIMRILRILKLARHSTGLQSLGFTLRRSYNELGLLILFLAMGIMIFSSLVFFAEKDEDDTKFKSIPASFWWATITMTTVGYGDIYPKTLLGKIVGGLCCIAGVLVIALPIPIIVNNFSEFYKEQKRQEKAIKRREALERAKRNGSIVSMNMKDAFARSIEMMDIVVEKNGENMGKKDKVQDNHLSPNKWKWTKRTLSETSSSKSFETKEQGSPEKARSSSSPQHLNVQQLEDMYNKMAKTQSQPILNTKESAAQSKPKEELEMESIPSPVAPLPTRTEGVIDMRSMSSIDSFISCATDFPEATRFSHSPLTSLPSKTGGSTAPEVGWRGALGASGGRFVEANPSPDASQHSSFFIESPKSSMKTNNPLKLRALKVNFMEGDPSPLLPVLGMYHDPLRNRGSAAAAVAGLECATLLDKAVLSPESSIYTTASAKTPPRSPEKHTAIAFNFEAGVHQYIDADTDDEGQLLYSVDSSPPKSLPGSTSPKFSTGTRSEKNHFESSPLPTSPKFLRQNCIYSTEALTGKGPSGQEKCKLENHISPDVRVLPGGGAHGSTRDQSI
Procedure: The purpose of this in vitro study was to evaluate the effects of HP184 on cloned human Kv2.1 potassium channels expressed in U-373MG cells using the whole-cell patch-clamping technique.
U-373MG cells expressing the human Kv2.1 channels were grown in DMEM media supplemented with 10% fetal bovine serum, 1×penicillin/streptomycin and […], G418 (Invitrogen, Carlsbad, Calif.) in an atmosphere of 95% air/5% CO2. Cells used for patch-clamping were seeded on glass or plastic coverslips 12-36 hours before use. Kv2.1 Currents were recorded at room temperature using the whole-cell configuration of the patch clamp technique with an Axopatch 200B amplifier (Axon Instruments, Foster City, Calif.). Briefly, electrodes (2-4 MΩ resistance) were fashioned from TW150F glass capillary tubes (World Precision Instruments, Sarasota, Fla.) and filled with pipette solution (in mM: potassium aspartate 120; KCl 20; Na2ATP 4; HEPES 5; MgCl2 1; pH 7.2 adjusted with KOH). For dose-dependently, currents were initiated by a 300-ms positive voltage pulse (20 mV) followed by a 50-ms negative pulse (−100 mV) and were recorded for off-line analyses. Once current from a cell perfused with control external solution (in mM: NaCl 130; KCl 5; sodium acetate 2.8; MgCl2 1; HEPES, 10; glucose 10; CaCl2 1 at pH7.4 adjusted with NaOH) was stabilized, the cell was perfused with external solution containing 1 μM HP184 (batch: R.C.4.53.3; molecular weight: 320.5; diluted from a 50 mM stock solution in DMSO; the DMSO final concentration in all drug solutions was not more than 0.06%). Currents were continuously recorded until they reached steady-state condition. The same procedure was performed with increasing concentrations of HP184 (3, 10 and 30 μM, sequentially). For each concentration from each cell, the steady-state current at the end of the 20-mV activation pulse was measured in pico Ampere (pA). The amplitude in pA for each concentration was compared with that for the control solution from the same cell and expressed as percent control (% control).

Voltage-Gated Potassium Current (% Control), Average ([2]; 1 μM)	Voltage-Gated Potassium Current (% Control), Average ([2]; 3 μM)	Voltage-Gated Potassium Current (% Control), Average ([2]; 10 μM)	Voltage-Gated Potassium Current (% Control), Average ([2]; 30 μM)	IC50 ([2]; HIT-T15 cells, steady-state current at end of 20-mV pulse, read-out: IC50, block of voltage-gated potassium currents)	Kv 2.1 Current (% Control), Average ([3]; 1 μM)	Kv 2.1 Current (% Control), Average ([3]; 3 μM)	Kv 2.1 Current (% Control), Average ([3]; 10 μM)	Kv 2.1 Current (% Control), Average ([3]; 30 μM)	IC50 ([3]; U-373MG cells expressing human Kv2.1, read-out: IC50, block of Kv2.1 current)	SMILES	Release of norepinephrine, acetylcholine and serotonin from rat brain slices (in words) [1]	Voltage-Gated Potassium Current (% Control), single cells ([2]; 1 μM)	Voltage-Gated Potassium Current (% Control), single cells ([2]; 3 μM)	Voltage-Gated Potassium Current (% Control), single cells ([2]; 10 μM)	Voltage-Gated Potassium Current (% Control), single cells ([2]; 30 μM)	Kv 2.1 Current (% Control), single cells ([3]; 1 μM)	Kv 2.1 Current (% Control), single cells ([3]; 3 μM)	Kv 2.1 Current (% Control), single cells ([3]; 10 μM)	Kv 2.1 Current (% Control), single cells ([3]; 30 μM)
										Nc1ccncc1 [4-AP, 4-aminopyridine]	dependent on added calcium								
85.7 % Control	62.5 % Control	17.2 % Control	1.4 % Control	3.9 µM	91.7 % Control	72.3 % Control	28.3 % Control	10.4 % Control	5.6 µM	CCCN(c1ccncc1F)n1cc(C)c2ccccc21 [HP184, N-(3-fluoro-4-pyridinyl)-N-propyl-3-methyl-1H-indole-1-amine]		95.1 % Control and 84.7 % Control and 80.9 % Control and 85.4 % Control and 82.6 % Control	86.4 % Control and 61.5 % Control and 46.4 % Control and 58.8 % Control and 59.3 % Control	34.0 % Control and 9.1 % Control and 12.6 % Control (2×) and 17.8 % Control	2.6 % Control and 0.8 % Control and 0.9 % Control and 1.2 % Control	98 % Control and 91.0 % Control and 89.2 % Control and 91.6 % Control and 95.0 % Control and 90.5 % Control (2×) and 94.5 % Control and 83.6 % Control and 91.8 % Control and 95.5 % Control	93.0 % Control and 63.1 % Control and 69.6 % Control and 62.9 % Control and 68.5 % Control and 70.8 % Control and 87.5 % Control and 86.1 % Control and 88.5 % Control and 79.9 % Control and 89.7 % Control	58.2 % Control and 19.9 % Control and 37.7 % Control and 24.4 % Control and 17.1 % Control and 38.5 % Control and 43.8 % Control and 13.1 % Control and 19.1 % Control and 12.5 % Control	22.1 % Control and 13.7 % Control (2×) and 16.2 % Control and 6.7 % Control and 1.4 % Control and 12.8 % Control and 4.8 % Control (2×) and 8.7 % Control
